ChEMBL document CHEMBL4811240, “Discovery of N-substituted sulfamoylbenzamide derivatives as novel inhibitors of STAT3 signaling pathway based on Niclosamide” (Eur J Med Chem, 2021)

Legend:
[1] = target: Tyrosine-protein kinase JAK1 (Homo sapiens) (UniProt P23458); experiment: Inhibition of JAK1 (850 to 1154 residues) (unknown origin) expressed in Sf21 cells at 10 uM preincubated for 10 mins followed by peptide substrate addition relative to control
[2] = target: Inhibitor of nuclear factor kappa-B kinase subunit beta (Homo sapiens) (UniProt O14920); experiment: Inhibition of IKKbeta (1 to 662 residues) (unknown origin) expressed in Sf21 cells at 10 uM preincubated for 10 mins followed by peptide substrate addition relative to control
[3] = target: Mitogen-activated protein kinase 8 (Homo sapiens) (UniProt P45983); experiment: Inhibition of N-terminal GST-tagged JNK1 (2 to 364 residues) (unknown origin) expressed in Escherichia coli at 10 uM preincubated for 10 mins followed by peptide substrate addition relative to control
[4] = target: Signal transducer and activator of transcription 3 (Homo sapiens) (UniProt P40763); experiment: Inhibition of STAT3 promoter activity in human MDA-MB-231 cells at 0.5 uM incubated for 24 hrs by dual luciferase reporter assay; assay type: cell-based
Sequence of Signal transducer and activator of transcription 3 (Homo sapiens) (P40763 whole entry): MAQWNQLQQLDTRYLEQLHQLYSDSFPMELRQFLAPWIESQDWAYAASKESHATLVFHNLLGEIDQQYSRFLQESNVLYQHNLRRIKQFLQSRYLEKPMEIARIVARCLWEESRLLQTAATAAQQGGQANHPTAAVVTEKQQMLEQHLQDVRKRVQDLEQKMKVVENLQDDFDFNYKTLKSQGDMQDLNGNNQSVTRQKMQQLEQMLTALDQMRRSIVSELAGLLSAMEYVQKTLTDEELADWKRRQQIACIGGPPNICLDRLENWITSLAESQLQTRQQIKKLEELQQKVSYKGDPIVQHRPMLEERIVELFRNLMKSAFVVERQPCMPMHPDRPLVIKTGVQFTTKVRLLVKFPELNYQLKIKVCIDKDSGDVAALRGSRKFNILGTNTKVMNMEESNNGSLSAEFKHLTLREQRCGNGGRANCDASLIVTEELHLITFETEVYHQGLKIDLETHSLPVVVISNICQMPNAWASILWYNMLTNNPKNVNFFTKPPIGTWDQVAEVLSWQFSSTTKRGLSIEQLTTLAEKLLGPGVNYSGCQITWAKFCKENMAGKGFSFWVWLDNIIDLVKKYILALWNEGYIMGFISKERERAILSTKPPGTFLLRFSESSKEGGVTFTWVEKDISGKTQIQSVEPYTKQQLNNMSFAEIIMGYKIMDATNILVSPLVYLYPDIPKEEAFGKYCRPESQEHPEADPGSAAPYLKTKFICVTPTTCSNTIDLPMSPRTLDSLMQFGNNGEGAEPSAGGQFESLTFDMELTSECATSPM

Sequence of Tyrosine-protein kinase JAK1 (Homo sapiens) (P23458 whole entry, the tested form may be a part): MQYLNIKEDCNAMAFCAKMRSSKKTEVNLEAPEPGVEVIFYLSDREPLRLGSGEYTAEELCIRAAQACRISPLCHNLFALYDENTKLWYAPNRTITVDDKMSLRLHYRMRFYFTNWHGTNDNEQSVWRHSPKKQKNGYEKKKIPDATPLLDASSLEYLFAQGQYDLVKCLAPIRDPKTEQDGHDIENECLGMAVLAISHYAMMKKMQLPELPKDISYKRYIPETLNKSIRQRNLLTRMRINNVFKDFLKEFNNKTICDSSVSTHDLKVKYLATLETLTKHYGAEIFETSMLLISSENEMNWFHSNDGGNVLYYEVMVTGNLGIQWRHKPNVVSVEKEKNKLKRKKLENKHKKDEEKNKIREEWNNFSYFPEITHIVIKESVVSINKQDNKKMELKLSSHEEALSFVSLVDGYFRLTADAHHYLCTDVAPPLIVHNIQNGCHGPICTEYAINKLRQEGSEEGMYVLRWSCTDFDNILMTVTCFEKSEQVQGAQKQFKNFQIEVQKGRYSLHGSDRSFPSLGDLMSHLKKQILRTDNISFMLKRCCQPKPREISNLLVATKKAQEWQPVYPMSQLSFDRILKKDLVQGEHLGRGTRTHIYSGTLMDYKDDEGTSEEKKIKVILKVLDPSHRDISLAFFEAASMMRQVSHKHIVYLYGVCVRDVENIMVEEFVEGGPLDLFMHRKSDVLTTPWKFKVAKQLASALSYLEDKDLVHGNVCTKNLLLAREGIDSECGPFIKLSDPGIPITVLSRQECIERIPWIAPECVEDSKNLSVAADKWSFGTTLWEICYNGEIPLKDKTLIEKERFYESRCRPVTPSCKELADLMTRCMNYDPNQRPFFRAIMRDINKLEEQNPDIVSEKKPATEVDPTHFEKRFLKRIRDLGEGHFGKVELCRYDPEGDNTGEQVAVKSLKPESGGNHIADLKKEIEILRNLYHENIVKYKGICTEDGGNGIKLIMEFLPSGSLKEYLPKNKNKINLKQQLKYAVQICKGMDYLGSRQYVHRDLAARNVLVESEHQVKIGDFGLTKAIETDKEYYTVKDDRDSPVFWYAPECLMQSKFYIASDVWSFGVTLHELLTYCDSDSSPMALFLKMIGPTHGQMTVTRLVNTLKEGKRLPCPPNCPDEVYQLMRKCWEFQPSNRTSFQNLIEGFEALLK
Sequence of Mitogen-activated protein kinase 8 (Homo sapiens) (P45983 whole entry, the tested form may be a part): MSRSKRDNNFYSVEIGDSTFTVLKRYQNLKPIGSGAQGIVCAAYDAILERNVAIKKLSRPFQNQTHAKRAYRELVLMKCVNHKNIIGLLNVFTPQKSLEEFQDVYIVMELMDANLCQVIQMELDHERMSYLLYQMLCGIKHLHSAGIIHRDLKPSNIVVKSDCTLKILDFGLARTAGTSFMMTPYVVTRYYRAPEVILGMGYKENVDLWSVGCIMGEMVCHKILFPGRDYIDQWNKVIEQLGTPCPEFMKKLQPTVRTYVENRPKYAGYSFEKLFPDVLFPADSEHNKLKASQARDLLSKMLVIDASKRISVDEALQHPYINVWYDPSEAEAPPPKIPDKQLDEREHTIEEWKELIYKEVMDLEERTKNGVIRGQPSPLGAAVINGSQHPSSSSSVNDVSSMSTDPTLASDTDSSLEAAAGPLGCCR
Sequence of Inhibitor of nuclear factor kappa-B kinase subunit beta (Homo sapiens) (O14920 whole entry, the tested form may be a part): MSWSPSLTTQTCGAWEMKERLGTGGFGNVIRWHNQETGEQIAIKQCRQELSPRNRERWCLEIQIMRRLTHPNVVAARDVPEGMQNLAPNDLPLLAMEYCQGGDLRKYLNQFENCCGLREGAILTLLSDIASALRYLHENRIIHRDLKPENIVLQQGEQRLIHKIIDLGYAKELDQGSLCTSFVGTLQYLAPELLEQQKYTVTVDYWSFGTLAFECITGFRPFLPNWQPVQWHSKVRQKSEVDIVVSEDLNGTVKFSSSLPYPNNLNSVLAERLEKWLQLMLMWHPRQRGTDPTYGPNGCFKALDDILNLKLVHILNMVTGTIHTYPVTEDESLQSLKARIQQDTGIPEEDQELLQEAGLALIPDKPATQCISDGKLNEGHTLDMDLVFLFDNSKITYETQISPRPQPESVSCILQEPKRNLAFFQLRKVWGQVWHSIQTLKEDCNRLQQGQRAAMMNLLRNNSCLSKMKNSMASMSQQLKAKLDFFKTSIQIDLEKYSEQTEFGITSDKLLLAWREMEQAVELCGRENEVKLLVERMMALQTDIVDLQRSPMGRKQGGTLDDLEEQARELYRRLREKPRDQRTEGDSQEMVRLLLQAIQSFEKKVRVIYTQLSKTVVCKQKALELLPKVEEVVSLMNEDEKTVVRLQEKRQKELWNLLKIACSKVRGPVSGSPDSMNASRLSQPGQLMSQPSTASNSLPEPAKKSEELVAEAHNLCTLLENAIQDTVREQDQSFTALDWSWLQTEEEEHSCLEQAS

inhibition [1]: 2.99% | inhibition [2]: 2.87% | inhibition [3]: 2.52% | inhibition [4]: 80.6%
SMILES: CC(C)(C)OC(=O)c1ccc(NC(=O)c2ccc(Cl)c(S(N)(=O)=O)c2)cc1
